Data reported in ChEMBL document CHEMBL4814066, “Amphiphilic peptide-based MMP3 inhibitors for intra-articular treatment of knee OA” (Bioorg Med Chem, 2021).
Activity calls are given as the source filed them. The rule behind the calls is not given here. Residues, ends and D or L forms follow the SMILES beside them.

Assays:
[1] = Solubility in water at 1 mg/ml; type: physicochemical; details: buffer
Stromelysin-1 = Stromelysin-1 (Homo sapiens, UniProt P08254); test: Inhibition of human MMP3 catalytic subunit by fluorometric analysis
[2] = Cytotoxicity against mouse BALB/3T3 cells clone A31 incubated for 24 hrs by Alamar blue assay; type: cell-based; details: BALB/3T3 clone A31, 24 h
Cartilage tissue [3] = test: Antiinflammatory activity against bovine normal hyaline femoral condyles cartilage assessed as reduction in IL-1beta/OSM-induced collagen release at 6 to 127 uM incubated for 21 days with media replenishment for every 7 days relative to control; type: functional, tissue-based; details: Bos taurus, dose 6-127 µM, time 21.0 day
Cartilage tissue [4] = test: Antiinflammatory activity against bovine normal hyaline femoral condyles cartilage assessed as reduction in IL-1beta/OSM-induced collagen release at 93 uM incubated for 21 days with media replenishment for every 7 days relative to control; type: functional, tissue-based; details: Bos taurus, time 21.0 day

Chain of Stromelysin-1 (P08254 whole entry): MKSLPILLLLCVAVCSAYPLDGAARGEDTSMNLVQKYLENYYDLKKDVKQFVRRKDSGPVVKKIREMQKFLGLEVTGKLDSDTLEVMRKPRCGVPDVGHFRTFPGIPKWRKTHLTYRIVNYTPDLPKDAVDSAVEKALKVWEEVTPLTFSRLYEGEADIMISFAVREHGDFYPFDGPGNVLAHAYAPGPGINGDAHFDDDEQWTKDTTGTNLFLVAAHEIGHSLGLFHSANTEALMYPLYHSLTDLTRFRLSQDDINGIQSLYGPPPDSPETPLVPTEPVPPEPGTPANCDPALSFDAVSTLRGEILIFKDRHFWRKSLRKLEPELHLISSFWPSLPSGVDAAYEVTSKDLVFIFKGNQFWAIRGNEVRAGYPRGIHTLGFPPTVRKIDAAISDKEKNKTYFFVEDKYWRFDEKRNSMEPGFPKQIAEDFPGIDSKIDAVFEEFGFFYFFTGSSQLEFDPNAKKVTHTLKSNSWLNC

SMILES	solubility [1]	IC50 (Stromelysin-1) [µM]	IC50 [2] [µM]	Activity (Cartilage tissue [3])	Activity (Cartilage tissue [4])
CC(=O)N[C@@H](CCCNC(=N)N)C(=O)N[C@@H](CS)C(=O)NCC(N)=O (Ac-Arg-Cys-Gly-NH2)	Soluble	95.3	–	–	–
CC(=O)N[C@@H](CCCNC(=N)N)C(=O)N[C@@H](CS)C(=O)NCC(=O)N[C@H](C(N)=O)C(C)C (Ac-RCGV-NH2)	Soluble	10.2	253	Active	–
CCCCCCCCCCCC(=O)N[C@@H](CS)C(=O)NCC(=O)N[C@@H](CCCNC(=N)N)C(=O)O (HELM PEPTIDE1{[CCCCCCCCCCCC(=O)[*:2]].C.G.R}$$$$V2.0)	Insoluble	7	–	–	–
CCCCCCCCNC(=O)C[C@H](NC(=O)CNC(=O)[C@H](CS)NC(=O)[C@@H](N)CCCNC(=N)N)C(N)=O (HELM PEPTIDE1{R.C.G.D.[am]}|CHEM1{[CCCCCCCCN[*:1]]}$PEPTIDE1,CHEM1,4:R3-1:R1$$$V2.0)	Insoluble	> 200	–	–	–
CC(=O)N[C@@H](CS)C(=O)NCC(=O)N[C@@H](CCCNC(=N)N)C(=O)N[C@@H](CCCCN)C(=O)O (Ac-CGRK-OH)	Soluble	> 50	–	–	–
CCCCCCCCCCCC(=O)N[C@@H](CS)C(=O)NCC(=O)N[C@@H](CCCNC(=N)N)C(=O)N[C@@H](CCCCN)C(=O)O (HELM PEPTIDE1{[CCCCCCCCCCCC(=O)[*:2]].C.G.R.K}$$$$V2.0)	Soluble	3.2	186	–	Active
CCCCCCCCC/C=C/CCCCCCCC(=O)N[C@@H](CS)C(=O)NCC(=O)N[C@@H](CCCNC(=N)N)C(=O)O	Insoluble	> 50	–	–	–
CCCCCCCC(=O)N[C@@H](CS)C(=O)NCC(=O)N[C@@H](CCCNC(=N)N)C(=O)O (HELM PEPTIDE1{[CCCCCCCC(=O)[*:2]].C.G.R}$$$$V2.0)	Insoluble	4.4	–	–	–
CC(=O)N[C@@H](CS)C(=O)NCC(=O)N[C@@H](CCCNC(=N)N)C(=O)O (Ac-Cys-Gly-Arg-OH)	Insoluble	850	–	–	–
CCCCCCCCNC(=O)C[C@H](NC(=O)CNC(=O)[C@H](CS)NC(=O)[C@H](CCCNC(=N)N)NC(C)=O)C(N)=O (HELM PEPTIDE1{[ac].R.C.G.D.[am]}|CHEM1{[CCCCCCCCN[*:1]]}$PEPTIDE1,CHEM1,5:R3-1:R1$$$V2.0)	Soluble	61.4	–	–	–
CC(C)[C@H](NC(=O)CNC(=O)[C@H](CS)NC(=O)[C@@H](N)CCCNC(=N)N)C(N)=O (H-RCGV-NH2)	Soluble	173	–	–	–
CCCC[C@H](NC(=O)CNC(=O)[C@H](CS)NC(=O)[C@H](CCCNC(=N)N)NC(C)=O)C(N)=O (HELM PEPTIDE1{[ac].R.C.G.[Nle].[am]}$$$$V2.0)	Soluble	79.5	–	–	–
